Reference: patent publication US20230085307A1, “PYRIDAZINONE COMPOUND AND HERBICIDE” (NISSAN CHEMICAL CORPORATION, priority 2019, published 2023)

How the values were obtained:
velvetleaf = experiment: Test Example 5: herbicidal effect by foliage application, plastic box (Table 20, symbol M); format: in vivo, velvetleaf (Abutilon theophrasti); conditions: foliage application; for M: velvetleaf, herbicidal effect: three weeks after application
Method in brief: (§1)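 Foliar spray test: emulsion formulation diluted in water to a set application rate, sprayed onto 14-day-old plants raised in diluvial soil at 25° C to 30° C under glass. Both herbicidal effect and crop effect rated visually three weeks later.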

oval-leafed pondweed [1] = experiment: Test Example 2: herbicidal activity, application during weed generation under submerged conditions (Table 17, symbol C); format: in vivo, oval-leafed pondweed (Monochoria vaginalis); conditions: AAH 320 g/ha; application during weed generation, submerged conditions
Method in brief: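 3-wk visual-criteria score after one water-surface dose. Emulsion formulation, water-diluted to set rate; applied at 1–2 leaf stage; alluvial soil, 4 cm standing water; seeds co-sown; greenhouse 25–30° C.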

chickweed [2] = experiment: Test Example 4: herbicidal effect by soil treatment (Table 19, symbol P); format: in vivo, common chickweed (Stellaria media)
Method in brief: (§2)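 Step 1: sow seeds in sterilized diluvial soil, cover ~1.5 cm. Step 2: spray diluted emulsion onto soil surface at predetermined rate. Step 3: greenhouse, 25–30° C, three weeks. Step 4: grade effect on each plant by earlier criteria.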

chickweed [3] = experiment: Test Example 5: herbicidal effect by foliage application, plastic box (Table 20, symbol P); format: in vivo, common chickweed (Stellaria media); conditions: foliage application; for P: chickweed, herbicidal effect: three weeks after application
Method in brief: as §1

wild oat [4] = experiment: Test Example 5: herbicidal effect by foliage application, plastic box (Table 20, symbol I); format: in vivo, wild oat (Avena fatua); conditions: foliage application; for I: wild oat, herbicidal effect: three weeks after application
Method in brief: as §1

redroot pigweed [5] = experiment: Test Example 4: herbicidal effect by soil treatment (Table 19, symbol N); format: in vivo, redroot pigweed (Amaranthus retroflexus)
Method in brief: as §2

redroot pigweed [6] = experiment: Test Example 5: herbicidal effect by foliage application, plastic box (Table 20, symbol N); format: in vivo, redroot pigweed (Amaranthus retroflexus); conditions: foliage application; for N: redroot pigweed, herbicidal effect: three weeks after application
Method in brief: as §1

barnyard grass [7] = experiment: Test Example 4: herbicidal effect by soil treatment (Table 19, symbol H); format: in vivo, barnyard grass (Echinochloa crus-galli)
Method in brief: as §2

Japanese bulrush = experiment: Test Example 1: herbicidal activity, application before weed generation under submerged conditions (Table 16, symbol B); format: in vivo, Japanese bulrush (Schoenoplectus juncoides); conditions: 320 g/ha applied herbicide
Method in brief: (§3)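 Submerged Wagner pots (alluvial soil, 4 cm water) sown with weed seeds and planted with 2.5-leaf rice seedlings; emulsifiable concentrate diluted in water applied to water surface on sowing day. Held in greenhouse at 25-30 °C; injury scored 0-5 by herbicidal rate after three weeks.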

green foxtail [8] = experiment: Test Example 4: herbicidal effect by soil treatment (Table 19, symbol G); format: in vivo, green foxtail (Setaria viridis)
Method in brief: as §2

blackgrass = experiment: Test Example 5: herbicidal effect by foliage application, plastic box (Table 20, symbol J); format: in vivo, blackgrass (Alopecurus myosuroides); conditions: foliage application; for J: blackgrass, herbicidal effect: three weeks after application
Method in brief: as §1

rice flat sedge = experiment: Test Example 3: herbicidal effect by foliage application, Wagner pot (Table 18, symbol E); format: in vivo, rice flat sedge (Cyperus iria); conditions: for herbicidal effect on E: rice flat sedge: amount of applied herbicide 320 g/ha; for herbicidal effect on E (rice flat sedge), rating 0-5: 320 g/ha
Method in brief: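 Plants were sown in alluvial soil held under 0.1–0.5 cm standing water and grown 14 days in a greenhouse at 25–30 °C. An emulsifiable formulation, water-diluted to the set dose, was then sprayed onto the foliage, and effects were scored three weeks later using previously defined criteria.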

green foxtail [9] = experiment: Test Example 5: herbicidal effect by foliage application, plastic box (Table 20, symbol G); format: in vivo, green foxtail (Setaria viridis); conditions: foliage application; for G: green foxtail, herbicidal effect: three weeks after application
Method in brief: as §1

barnyard grass [10] = experiment: Test Example 5: herbicidal effect by foliage application, plastic box (Table 20, symbol H); format: in vivo, barnyard grass (Echinochloa crus-galli); conditions: foliage application; for H: barnyard grass, herbicidal effect: three weeks after application
Method in brief: as §1

oval-leafed pondweed [11] = experiment: Test Example 1: herbicidal activity, application before weed generation under submerged conditions (Table 16, symbol C); format: in vivo, oval-leafed pondweed (Monochoria vaginalis); conditions: 320 g/ha applied herbicide
Method in brief: as §3

wild oat [12] = experiment: Test Example 4: herbicidal effect by soil treatment (Table 19, symbol I); format: in vivo, wild oat (Avena fatua)
Method in brief: as §2

[13] = AAH 320 g/ha, evaluated three weeks after application
[14] = amount of applied herbicide 320 g/ha
[15] = 320 g/ha, evaluated three weeks after application

Compound | herbicidal effect rating, C: oval-leafed pondweed (oval-leafed pondweed [1]) | herbicidal effect on P: chickweed (chickweed [2]; [14]) | herbicidal effect on N: redroot pigweed (redroot pigweed [5]; [14]) | herbicidal effect on H: barnyard grass (barnyard grass [7]; [14]) | Herbicidal effect on B: Japanese bulrush (grade 0-5) (Japanese bulrush) | herbicidal effect on G: green foxtail (green foxtail [8]; [14]) | herbicidal effect on E: rice flat sedge (rice flat sedge) | Herbicidal effect on C: oval-leafed pondweed (grade 0-5) (oval-leafed pondweed [11]) | herbicidal effect on I: wild oat (wild oat [12]; [14]) | herbicidal effect on E (rice flat sedge), rating 0-5 (rice flat sedge) | M: velvetleaf, herbicidal effect (velvetleaf; AAH 320 g/ha) | P: chickweed, herbicidal effect (chickweed [3]; AAH 320 g/ha) | I: wild oat, herbicidal effect (wild oat [4]; AAH 320 g/ha) | N: redroot pigweed, herbicidal effect (redroot pigweed [6]; AAH 320 g/ha) | J: blackgrass, herbicidal effect (blackgrass; AAH 320 g/ha) | G: green foxtail, herbicidal effect (green foxtail [9]; AAH 320 g/ha) | H: barnyard grass, herbicidal effect (barnyard grass [10]; AAH 320 g/ha) | other results
CCCC(=O)Oc1c(C)nn(C)c(=O)c1-c1c(-c2ccc(SC(C)C)cc2)sc2ccc(F)cc12 [2-253] | 3 (Herbicidal rate of 40% or more and less than 70%) | 3 (Herbicidal rate of 40% or more and less than 70%) | 5 (Herbicidal rate of 90% or more (almost completely withered)) | 1 (Herbicidal rate of 5% or more and less than 20%) | 3 (Herbicidal rate of 40% or more and less than 70%) | 0 (Herbicidal rate of 5% or less (almost no effect)) | 4 (Herbicidal rate of 70% or more and less than 90%) | 0 (Herbicidal rate of 5% or less (almost no effect)) | 0 (Herbicidal rate of 5% or less (almost no effect)) |  |  |  |  |  |  |  |  | M: velvetleaf, herbicidal effect (criteria 0-5) (velvetleaf; [13]): 5 (Herbicidal rate of 90% or more (almost completely withered)); P: chickweed, herbicidal effect (criteria 0-5) (chickweed [3]; [13]): 5 (Herbicidal rate of 90% or more (almost completely withered)); I: wild oat, herbicidal effect (criteria 0-5) (wild oat [4]; [13]): 2 (Herbicidal rate of 20% or more and less than 40%); N: redroot pigweed, herbicidal effect (criteria 0-5) (redroot pigweed [6]; [13]): 5 (Herbicidal rate of 90% or more (almost completely withered)); J: blackgrass, herbicidal effect (criteria 0-5) (blackgrass; [13]): 4 (Herbicidal rate of 70% or more and less than 90%); G: green foxtail, herbicidal effect (criteria 0-5) (green foxtail [9]; [13]): 5 (Herbicidal rate of 90% or more (almost completely withered)); H: barnyard grass, herbicidal effect (criteria 0-5) (barnyard grass [10]; [13]): 5 (Herbicidal rate of 90% or more (almost completely withered))
Cc1nn(C)c(=O)c(-c2c(-c3ccc(OCC4CC4)cc3)sc3ccc(F)cc23)c1O [2-060] | 1 (Herbicidal rate of 5% or more and less than 20%) |  |  |  | 5 (Herbicidal rate of 90% or more (almost completely withered)) |  |  | 4 (Herbicidal rate of 70% or more and less than 90%) |  | 5 (Herbicidal rate of 90% or more (almost completely withered)) |  |  |  |  |  |  |  | herbicidal effect on M: velvetleaf (velvetleaf; [15]): 4 (Herbicidal rate of 70% or more and less than 90%); herbicidal effect rating, P: chickweed (chickweed [2]; 320 g/ha): 1 (Herbicidal rate of 5% or more and less than 20%); herbicidal effect on P: chickweed (chickweed [3]; [15]): 5 (Herbicidal rate of 90% or more (almost completely withered)); herbicidal effect on I: wild oat (wild oat [4]; [15]): 0 (Herbicidal rate of 5% or less (almost no effect)); herbicidal effect rating, N: redroot pigweed (redroot pigweed [5]; 320 g/ha): 5 (Herbicidal rate of 90% or more (almost completely withered)); herbicidal effect on N: redroot pigweed (redroot pigweed [6]; [15]): 5 (Herbicidal rate of 90% or more (almost completely withered)); herbicidal effect rating, H: barnyard grass (barnyard grass [7]; 320 g/ha): 3 (Herbicidal rate of 40% or more and less than 70%); herbicidal effect rating, G: green foxtail (green foxtail [8]; 320 g/ha): 1 (Herbicidal rate of 5% or more and less than 20%); herbicidal effect on J: blackgrass (blackgrass; [15]): 3 (Herbicidal rate of 40% or more and less than 70%); herbicidal effect on G: green foxtail (green foxtail [9]; [15]): 3 (Herbicidal rate of 40% or more and less than 70%); herbicidal effect on H: barnyard grass (barnyard grass [10]; [15]): 3 (Herbicidal rate of 40% or more and less than 70%); herbicidal effect rating, I: wild oat (wild oat [12]; 320 g/ha): 0 (Herbicidal rate of 5% or less (almost no effect))
C=CCOc1ccccc1-c1sc2ccccc2c1-c1c(O)c(C)nn(C)c1=O [1-110] | 0 (Herbicidal rate of 5% or less (almost no effect)) |  |  |  | 0 (Herbicidal rate of 5% or less (almost no effect)) |  |  | 4 (Herbicidal rate of 70% or more and less than 90%) |  | 4 (Herbicidal rate of 70% or more and less than 90%) | 2 (Herbicidal rate of 20% or more and less than 40%) | 5 (Herbicidal rate of 90% or more (almost completely withered)) | 3 (Herbicidal rate of 40% or more and less than 70%) | 0 (Herbicidal rate of 5% or less (almost no effect)) | 4 (Herbicidal rate of 70% or more and less than 90%) | 4 (Herbicidal rate of 70% or more and less than 90%) | 3 (Herbicidal rate of 40% or more and less than 70%) | herbicidal effect rating, P: chickweed (chickweed [2]; [14]): 3 (Herbicidal rate of 40% or more and less than 70%); herbicidal effect rating, N: redroot pigweed (redroot pigweed [5]; [14]): 0 (Herbicidal rate of 5% or less (almost no effect)); herbicidal effect rating, H: barnyard grass (barnyard grass [7]; [14]): 3 (Herbicidal rate of 40% or more and less than 70%); herbicidal effect rating, G: green foxtail (green foxtail [8]; [14]): 3 (Herbicidal rate of 40% or more and less than 70%); herbicidal effect rating, I: wild oat (wild oat [12]; [14]): 1 (Herbicidal rate of 5% or more and less than 20%)
CCCC(=O)Oc1c(C)nn(C)c(=O)c1-c1c(-c2ccc(C(F)(F)F)cc2)sc2ccccc12 [1-130] | 0 (Herbicidal rate of 5% or less (almost no effect)) |  |  |  | 3 (Herbicidal rate of 40% or more and less than 70%) |  |  | 3 (Herbicidal rate of 40% or more and less than 70%) |  | 5 (Herbicidal rate of 90% or more (almost completely withered)) | 5 (Herbicidal rate of 90% or more (almost completely withered)) | 5 (Herbicidal rate of 90% or more (almost completely withered)) | 0 (Herbicidal rate of 5% or less (almost no effect)) | 4 (Herbicidal rate of 70% or more and less than 90%) | 0 (Herbicidal rate of 5% or less (almost no effect)) | 0 (Herbicidal rate of 5% or less (almost no effect)) | 0 (Herbicidal rate of 5% or less (almost no effect)) | P: chickweed, herbicidal effect rating (chickweed [2]; AAH 320 g/ha): 3 (Herbicidal rate of 40% or more and less than 70%); N: redroot pigweed, herbicidal effect rating (redroot pigweed [5]; AAH 320 g/ha): 3 (Herbicidal rate of 40% or more and less than 70%); H: barnyard grass, herbicidal effect rating (barnyard grass [7]; AAH 320 g/ha): 3 (Herbicidal rate of 40% or more and less than 70%); G: green foxtail, herbicidal effect rating (green foxtail [8]; AAH 320 g/ha): 3 (Herbicidal rate of 40% or more and less than 70%); I: wild oat, herbicidal effect rating (wild oat [12]; AAH 320 g/ha): 0 (Herbicidal rate of 5% or less (almost no effect))
Cc1nn(C)c(=O)c(-c2c(-c3ccc(C(F)F)cc3)sc3ccc(F)cc23)c1O [2-227] | 0 (Herbicidal rate of 5% or less (almost no effect)) | 5 (Herbicidal rate of 90% or more (almost completely withered)) | 5 (Herbicidal rate of 90% or more (almost completely withered)) | 5 (Herbicidal rate of 90% or more (almost completely withered)) | 0 (Herbicidal rate of 5% or less (almost no effect)) | 4 (Herbicidal rate of 70% or more and less than 90%) | 5 (Herbicidal rate of 90% or more (almost completely withered)) | 0 (Herbicidal rate of 5% or less (almost no effect)) | 0 (Herbicidal rate of 5% or less (almost no effect)) |  |  |  |  |  |  |  |  | herbicidal effect on M: velvetleaf (criteria 0-5) (velvetleaf; [15]): 5 (Herbicidal rate of 90% or more (almost completely withered)); herbicidal effect on P: chickweed (criteria 0-5) (chickweed [3]; [15]): 5 (Herbicidal rate of 90% or more (almost completely withered)); herbicidal effect on I: wild oat (criteria 0-5) (wild oat [4]; [15]): 0 (Herbicidal rate of 5% or less (almost no effect)); herbicidal effect on N: redroot pigweed (criteria 0-5) (redroot pigweed [6]; [15]): 5 (Herbicidal rate of 90% or more (almost completely withered)); herbicidal effect on J: blackgrass (criteria 0-5) (blackgrass; [15]): 3 (Herbicidal rate of 40% or more and less than 70%); herbicidal effect on G: green foxtail (criteria 0-5) (green foxtail [9]; [15]): 4 (Herbicidal rate of 70% or more and less than 90%); herbicidal effect on H: barnyard grass (criteria 0-5) (barnyard grass [10]; [15]): 5 (Herbicidal rate of 90% or more (almost completely withered))
